From PubChem BioAssay (NCI)
“And” between values parts separate entries of the source, which are not always exact repeats. Equal entries are not always repeated.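 Test compounds were applied to cells in 96-well plates for 48 hours at 5 doses. Here, GI50 denotes the concentration required for 50% inhibition of growth. At the TGI there is no net growth.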

What was measured:
Test in all cases: NCI anticancer screen, dose series, 48 h
SW-620 colon = test system: SW-620 colon
A549 NSCLC = test system: A549 NSCLC
BT-549 breast = test system: BT-549 breast
CAKI-1 renal = test system: CAKI-1 renal
NCI/ADR-RES ovarian = test system: NCI/ADR-RES ovarian
HL-60(TB) leukemia = test system: HL-60(TB) leukemia
IGROV1 ovarian = test system: IGROV1 ovarian
SR leukemia = test system: SR leukemia
UO-31 renal = test system: UO-31 renal
DU-145 prostate = test system: DU-145 prostate
A498 renal = test system: A498 renal
SF-268 CNS = test system: SF-268 CNS
UACC-62 melanoma = test system: UACC-62 melanoma
CCRF-CEM leukemia = test system: CCRF-CEM leukemia
HCT-116 colon = test system: HCT-116 colon
HOP-92 NSCLC = test system: HOP-92 NSCLC
SNB-19 CNS = test system: SNB-19 CNS
SK-OV-3 ovarian = test system: SK-OV-3 ovarian
LOX IMVI melanoma = test system: LOX IMVI melanoma
HCC-2998 colon = test system: HCC-2998 colon
HOP-62 NSCLC = test system: HOP-62 NSCLC
K-562 leukemia = test system: K-562 leukemia
SK-MEL-2 melanoma = test system: SK-MEL-2 melanoma
UACC-257 melanoma = test system: UACC-257 melanoma
ACHN renal = test system: ACHN renal
MDA-MB-435 = test system: MDA-MB-435
TK-10 renal = test system: TK-10 renal
SK-MEL-28 melanoma = test system: SK-MEL-28 melanoma
SK-MEL-5 melanoma = test system: SK-MEL-5 melanoma
SF-539 CNS = test system: SF-539 CNS
MOLT-4 leukemia = test system: MOLT-4 leukemia
HT29 colon = test system: HT29 colon
COLO 205 colon = test system: COLO 205 colon
M14 melanoma = test system: M14 melanoma
PC-3 prostate = test system: PC-3 prostate
NCI-H226 lung = test system: NCI-H226 lung
RPMI-8226 leukemia = test system: RPMI-8226 leukemia
SN12C renal = test system: SN12C renal
T-47D breast = test system: T-47D breast
786-0 renal = test system: 786-0 renal
HS 578T breast = test system: HS 578T breast
KM12 colon = test system: KM12 colon
OVCAR-5 ovarian = test system: OVCAR-5 ovarian
U251 CNS = test system: U251 CNS
OVCAR-3 ovarian = test system: OVCAR-3 ovarian
OVCAR-4 ovarian = test system: OVCAR-4 ovarian
MCF7 breast = test system: MCF7 breast
SF-295 CNS = test system: SF-295 CNS
MALME-3M melanoma = test system: MALME-3M melanoma
SNB-75 CNS = test system: SNB-75 CNS
HCT-15 colon = test system: HCT-15 colon
NCI-H23 lung = test system: NCI-H23 lung
NCI-H522 lung = test system: NCI-H522 lung
RXF 393 renal = test system: RXF 393 renal
OVCAR-8 ovarian = test system: OVCAR-8 ovarian
NCI-H460 lung = test system: NCI-H460 lung
MDA-MB-231 breast = test system: MDA-MB-231 breast

With Cc1cc(C(=O)NC(CCC(=O)O)C(=O)O)sc1CCC1CNc2nc(N)[nH]c(=O)c2C1 (centres undefined) the GI50 (SW-620 colon) was < 17.4 nM and 25.5 nM, the TGI (SW-620 colon) was greater than 100000 nM and the GI50 (A549 NSCLC) was 43.7 nM and 156 nM. For the same molecule, the TGI (A549 NSCLC) was greater than 100000 nM, the GI50 (BT-549 breast) was 370 nM and 2390 nM and the TGI (BT-549 breast) was greater than 100000 nM. The GI50 (CAKI-1 renal) was < 18 nM and 23.4 nM, the TGI (CAKI-1 renal) was greater than 100000 nM and the GI50 (NCI/ADR-RES ovarian) was 49.9 nM and 75.8 nM. The TGI (NCI/ADR-RES ovarian) was greater than 100000 nM, the GI50 (HL-60(TB) leukemia) was 36.6 nM and 55.8 nM and the TGI (HL-60(TB) leukemia) was greater than 100000 nM. For the same molecule, the GI50 (IGROV1 ovarian) was 46.4 nM and 192 nM, the TGI (IGROV1 ovarian) was greater than 100000 nM and the GI50 (SR leukemia) was < 15.6 nM and 26.3 nM. For the same molecule, the TGI (SR leukemia) was greater than 100000 nM, the GI50 (UO-31 renal) was 31.9 nM and 59.2 nM and the TGI (UO-31 renal) was greater than 100000 nM. The GI50 (DU-145 prostate) was < 15.8 nM and 40.7 nM, the TGI (DU-145 prostate) was greater than 100000 nM and the GI50 (A498 renal) was 199 nM and 94.5 nM. For the same molecule, the TGI (A498 renal) was greater than 100000 nM, the GI50 (SF-268 CNS) was 44 nM and 72.1 nM and the TGI (SF-268 CNS) was greater than 100000 nM. The GI50 (UACC-62 melanoma) was 49 nM and 55.7 nM, the TGI (UACC-62 melanoma) was greater than 100000 nM and the GI50 (CCRF-CEM leukemia) was 12.3 nM and 27.3 nM. For the same molecule, the TGI (CCRF-CEM leukemia) was greater than 100000 nM, the GI50 (HCT-116 colon) was < 19.8 nM and 35.7 nM and the TGI (HCT-116 colon) was greater than 100000 nM. For the same molecule, the GI50 (HOP-92 NSCLC) was 179 nM and 80.2 nM, the TGI (HOP-92 NSCLC) was greater than 100000 nM and the GI50 (SNB-19 CNS) was 78.3 nM and 606 nM. For the same molecule, the TGI (SNB-19 CNS) was greater than 100000 nM, the GI50 (SK-OV-3 ovarian) was 10.3 nM and 18.1 nM and the TGI (SK-OV-3 ovarian) was greater than 100000 nM. The GI50 (LOX IMVI melanoma) was 29.4 nM and 36.5 nM, the TGI (LOX IMVI melanoma) was greater than 100000 nM and the GI50 (HCC-2998 colon) was 67.7 nM and 323 nM. The TGI (HCC-2998 colon) was greater than 100000 nM, the GI50 (HOP-62 NSCLC) was 53.3 nM and 80.6 nM and the TGI (HOP-62 NSCLC) was greater than 100000 nM. The GI50 (K-562 leukemia) was less than 10 nM, the TGI (K-562 leukemia) was greater than 100000 nM and the TGI (SK-MEL-2 melanoma) was greater than 100000 nM. For the same molecule, the GI50 (UACC-257 melanoma) was 72.2 nM and 228 nM, the TGI (UACC-257 melanoma) was greater than 100000 nM and the GI50 (ACHN renal) was 13.3 nM and 43.5 nM. For the same molecule, the TGI (ACHN renal) was greater than 100000 nM, the GI50 (MDA-MB-435) was 35.4 nM and 54.2 nM and the TGI (MDA-MB-435) was greater than 100000 nM. The GI50 (TK-10 renal) was 35.5 nM and 65 nM, the TGI (TK-10 renal) was greater than 100000 nM and the GI50 (SK-MEL-28 melanoma) was 43.5 nM and 64.3 nM. The TGI (SK-MEL-28 melanoma) was greater than 100000 nM, the GI50 (SK-MEL-5 melanoma) was 56 nM and 279 nM and the TGI (SK-MEL-5 melanoma) was greater than 100000 nM. For the same molecule, the GI50 (SF-539 CNS) was 38.3 nM and 52.1 nM, the TGI (SF-539 CNS) was greater than 100000 nM and the GI50 (MOLT-4 leukemia) was 29.7 nM and 45.3 nM. For the same molecule, the TGI (MOLT-4 leukemia) was greater than 100000 nM, the GI50 (HT29 colon) was < 19.8 nM and 32.2 nM and the TGI (HT29 colon) was greater than 100000 nM. The GI50 (COLO 205 colon) was 34.1 nM and 50.9 nM, the TGI (COLO 205 colon) was greater than 100000 nM and the GI50 (M14 melanoma) was < 19.2 nM and 50.1 nM. It also gave a TGI (M14 melanoma) greater than 100000 nM, a GI50 (PC-3 prostate) of less than 10 nM and a TGI (PC-3 prostate) greater than 100000 nM. For the same molecule, the GI50 (NCI-H226 lung) was less than 12.8 nM, the TGI (NCI-H226 lung) was greater than 100000 nM and the GI50 (RPMI-8226 leukemia) was 150 nM and 229 nM. The TGI (RPMI-8226 leukemia) was greater than 100000 nM, the GI50 (SN12C renal) was 31.5 nM and 48.2 nM and the TGI (SN12C renal) was greater than 100000 nM. The TGI (T-47D breast) was greater than 100000 nM, the GI50 (786-0 renal) was less than 10 nM and the TGI (786-0 renal) was greater than 100000 nM. The GI50 (HS 578T breast) was 2130 nM and 8890 nM, the TGI (HS 578T breast) was greater than 100000 nM and the GI50 (KM12 colon) was 38.3 nM and 93.7 nM. The TGI (KM12 colon) was greater than 100000 nM, the GI50 (OVCAR-5 ovarian) was 38.3 nM and 72.3 nM and the TGI (OVCAR-5 ovarian) was greater than 100000 nM. For the same molecule, the GI50 (U251 CNS) was 36.8 nM and 43.9 nM, the TGI (U251 CNS) was greater than 100000 nM and the GI50 (OVCAR-3 ovarian) was 52.3 nM and 487 nM. The TGI (OVCAR-3 ovarian) was greater than 100000 nM, the GI50 (OVCAR-4 ovarian) was 121 nM and 167 nM and the TGI (OVCAR-4 ovarian) was greater than 100000 nM. For the same molecule, the GI50 (MCF7 breast) was < 11.4 nM and 34.6 nM, the TGI (MCF7 breast) was greater than 100000 nM and the GI50 (SF-295 CNS) was 53.7 nM and 97.3 nM. It also gave a TGI (SF-295 CNS) greater than 100000 nM, a TGI (MALME-3M melanoma) greater than 100000 nM and a TGI (SNB-75 CNS) greater than 100000 nM. The GI50 (HCT-15 colon) was 50.2 nM and 330 nM, the TGI (HCT-15 colon) was greater than 100000 nM and the TGI (NCI-H23 lung) was greater than 100000 nM. The GI50 (NCI-H522 lung) was < 22.6 nM and 54.6 nM, the TGI (NCI-H522 lung) was greater than 100000 nM and the GI50 (RXF 393 renal) was 15 nM and < 15.8 nM. The TGI (RXF 393 renal) was greater than 100000 nM, the GI50 (OVCAR-8 ovarian) was < 21.5 nM and 45.4 nM and the TGI (OVCAR-8 ovarian) was greater than 100000 nM. The GI50 (NCI-H460 lung) was < 18.6 nM and 40.4 nM, the TGI (NCI-H460 lung) was greater than 100000 nM and the GI50 (MDA-MB-231 breast) was 6720 nM and 12800 nM. The TGI (MDA-MB-231 breast) was greater than 100000 nM.
